Measured values published in US9133521B2, “Composition for diagnosing Alzheimer's disease using methylation status of HMOX1 gene and method for diagnosing Alzheimer's disease using the same” (Ewha University—Industry Collaboration Foundation, priority 2012, dated 2015).

Tested on: HMOX1 expression in H4 cell line
Experiment: HMOX1 gene expression by qRT-PCR in H4 cell line treated with 5-aza-2′-deoxycytidine
Type: cell-based, human
Conditions: normal H4 cell line, 10 μM for 3 days, normalized to GAPDH
Procedure: Human neuroglioblastoma cell line, H4 was cultured in a Dulbecco's modified Eagle medium containing 10% fetal bovine serum, 100 U/mL penicillin, 100 μg/mL streptomycin and 2 mM L-glutamine, and APP695-Swedish mutant (K595N/M596L)-expressing Alzheimer's disease model cell line, H4-sw was cultured in the H4 culture medium supplemented with 500 μg/mL geneticine.
Total RNAs were extracted from the cell line and the brain tissues using an RNeasy mini kit (Qiagen). The extraction method was performed according to the manufacturer's manual. The extracted total RNAs were quantified using a spectrophotometer, and RNA degradation was examined by electrophoresis in a 1% agarose gel.
For cDNA synthesis, Superscript II reverse transcriptase (Invitrogen) was used. 1 μg of total RNA and 50 ng of oligo dT were denatured at 70° C. for 10 minutes, and then a reaction mixture of 4 μA of 5×RT buffer, 2 μA of […], 4 μA of 2.5 mM dNTP mixture, 200 units of Superscript II reverse transcriptase, 10 units of RNase inhibitor was added thereto. 20 μA of the reaction mixture was reacted at 25° C. for 10 minutes, at 42° C. for 50 minutes, and at 95° C. for 5 minutes for cDNA synthesis. The product was diluted at 1:4, and 2 μA thereof was used as a template of qRT-PCR. […]

`Nc1ncn([C@H]2C[C@H](O)[C@@H](CO)O2)c(=O)n1` [5-aza-2′-deoxycytidine] was tested, and the HMOX1 expression was “increased”.
